Laboratory results as given in publication PMC8402619 (Viruses, 2021).
Read-outs that look alike come from different tables or passages of the source.

Key:
[1] = Plasma protein binding by equilibrium dialysis, monkey plasma; type: in vitro ADME; conditions: pH 7.4
[2] = Renal clearance after 1 mg/kg intravenous, mouse; type: in vivo, male CD-1 mice; conditions: 1 mg/kg intravenously
OAT1 = target: T1, OAT1 (Homo sapiens, UniProt Q4U2R8); test: Islatravir uptake as substrate, MDCKII vs MDCKII-OAT1 cells; type: in vitro ADME
T1 construct: expressed in transfected cells; host or cells: MDCKII
T1 sequence (Q4U2R8 1-563): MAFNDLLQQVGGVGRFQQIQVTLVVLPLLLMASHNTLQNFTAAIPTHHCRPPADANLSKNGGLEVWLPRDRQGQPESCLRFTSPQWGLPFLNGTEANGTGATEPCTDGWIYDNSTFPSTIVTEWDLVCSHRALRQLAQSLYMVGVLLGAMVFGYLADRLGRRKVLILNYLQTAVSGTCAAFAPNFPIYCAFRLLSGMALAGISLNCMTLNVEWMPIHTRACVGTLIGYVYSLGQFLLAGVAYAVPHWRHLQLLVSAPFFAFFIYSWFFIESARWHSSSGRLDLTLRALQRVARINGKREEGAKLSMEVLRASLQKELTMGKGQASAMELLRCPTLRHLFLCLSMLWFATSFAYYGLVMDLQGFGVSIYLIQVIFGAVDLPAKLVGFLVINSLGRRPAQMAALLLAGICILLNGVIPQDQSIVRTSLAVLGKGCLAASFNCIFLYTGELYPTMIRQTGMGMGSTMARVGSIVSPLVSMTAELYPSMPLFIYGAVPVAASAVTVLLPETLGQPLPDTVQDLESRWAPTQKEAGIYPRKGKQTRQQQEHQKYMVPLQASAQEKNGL

MATE1 = target: T2, MATE1 (Homo sapiens, UniProt Q96FL8); test: Islatravir uptake as substrate, CHO-K1 vs CHO-K1-MATE1 cells; type: in vitro ADME
T2 construct: expressed in transfected cells; host or cells: CHO-K1
T2 sequence (Q96FL8 1-570): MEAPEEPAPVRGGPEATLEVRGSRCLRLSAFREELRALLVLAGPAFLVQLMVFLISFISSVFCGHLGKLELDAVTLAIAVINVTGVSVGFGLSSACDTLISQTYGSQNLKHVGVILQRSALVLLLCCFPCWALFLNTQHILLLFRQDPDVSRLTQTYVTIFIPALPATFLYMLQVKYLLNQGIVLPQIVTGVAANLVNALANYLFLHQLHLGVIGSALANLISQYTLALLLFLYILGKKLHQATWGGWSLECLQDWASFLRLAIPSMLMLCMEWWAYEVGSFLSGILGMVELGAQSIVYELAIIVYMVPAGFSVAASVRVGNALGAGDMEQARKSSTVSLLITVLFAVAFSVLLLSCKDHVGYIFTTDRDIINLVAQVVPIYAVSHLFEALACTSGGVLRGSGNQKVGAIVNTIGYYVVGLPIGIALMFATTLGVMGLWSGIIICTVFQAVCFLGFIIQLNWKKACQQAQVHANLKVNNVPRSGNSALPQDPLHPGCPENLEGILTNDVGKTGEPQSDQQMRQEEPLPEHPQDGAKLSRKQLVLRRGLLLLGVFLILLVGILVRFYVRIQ

BCRP = target: T3, BCRP (Homo sapiens, UniProt Q9UNQ0); test: Bidirectional transport across MDCKII and MDCKII-BCRP cell monolayers; type: in vitro ADME; set-up: expressed in transfected cells; host or cells: MDCKII; conditions: for efflux ratio at 3 h, 2 µM: human
T3 sequence (Q9UNQ0 1-655): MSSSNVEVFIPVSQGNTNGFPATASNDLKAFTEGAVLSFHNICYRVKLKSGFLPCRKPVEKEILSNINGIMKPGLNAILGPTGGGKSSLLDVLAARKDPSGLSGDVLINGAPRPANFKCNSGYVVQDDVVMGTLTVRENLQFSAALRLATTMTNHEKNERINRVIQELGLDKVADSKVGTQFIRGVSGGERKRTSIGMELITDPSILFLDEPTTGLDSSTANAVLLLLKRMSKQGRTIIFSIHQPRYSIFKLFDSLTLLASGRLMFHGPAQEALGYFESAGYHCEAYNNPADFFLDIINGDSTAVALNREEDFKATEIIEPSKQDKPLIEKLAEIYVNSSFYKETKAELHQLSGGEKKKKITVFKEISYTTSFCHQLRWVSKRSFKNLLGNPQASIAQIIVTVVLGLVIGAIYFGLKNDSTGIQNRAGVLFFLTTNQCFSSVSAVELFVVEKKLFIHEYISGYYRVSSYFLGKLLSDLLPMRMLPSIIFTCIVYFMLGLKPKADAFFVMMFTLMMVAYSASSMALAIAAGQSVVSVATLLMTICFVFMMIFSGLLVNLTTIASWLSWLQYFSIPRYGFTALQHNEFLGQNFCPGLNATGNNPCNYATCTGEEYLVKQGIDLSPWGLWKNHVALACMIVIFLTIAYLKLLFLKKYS

## C#C[C@]1(CO)O[C@@H](n2cnc3c(N)nc(F)nc32)C[C@@H]1O [Islatravir, 4′-Ethynyl-2-fluoro-2′-deoxyadenosine]
[1]
  fraction unbound at 24 h, 0.1 µM: > 0.84
[2]
  Renal Excretion (% Total Plasma Clearance): 61%
[2]; male, CD-1, plasma and urine, iv, urine 0-24 h
  CL renal: 15.4 mL/min/kg
OAT1; MDCKII-OAT1, 1 µM [3H]islatravir, 5 min, mean ± SD, n = 3
  Islatravir Uptake Transporter-Expressing Cells: 0.72 ± 0.04 pmole/10^6 Cells
OAT1; OAT1, uptake into transporter-expressing cells to control cells, 5 min
  Fold-Difference: 1.04
OAT1; OAT1 row, MDCKII control cells, 1 µM [3H]islatravir, 5 min, mean ± SD, n = 3
  Islatravir Uptake Control Cells: 0.69 ± 0.07 pmole/10^6 Cells
OAT1; OAT1 substrate assessment
  Conclusions: Non-substrate
MATE1; CHO-K1-MATE1, 2 µM [14C]islatravir, 20 min, mean ± SD, n = 3
  Islatravir Uptake Transporter-Expressing Cells: 2.94 ± 0.20 pmole/10^6 Cells
MATE1; MATE1, uptake into transporter-expressing cells to control cells, 20 min
  Fold-Difference: 1.01
MATE1; MATE1 row, CHO-K1 control cells, 2 µM [14C]islatravir, 20 min, mean ± SD, n = 3
  Islatravir Uptake Control Cells: 2.90 ± 0.27 pmole/10^6 Cells
MATE1; MATE1 substrate assessment
  Conclusions: Non-substrate
BCRP; bi-directional transport assay
  BCRP substrate assessment: substrate of BCRP
BCRP; dog, MDCK, MDCKII cells, read-out: apparent permeability coefficient (Papp)
  Papp at 3 h, 2 µM: 1.6 to 2.2 ×10⁻⁶ cm/s
BCRP; dog, MDCK, islatravir 2 µM, untransfected control cells, mean ± SEM, read-out: mean Papp(B to A)/Papp(A to B) efflux ratio
  efflux ratio at 2 µM: 0.8 ± 0.2
BCRP; islatravir 2 µM, BCRP-transfected monolayers with Ko143 (5 µM), mean ± SEM, read-out: mean Papp(B to A)/Papp(A to B) efflux ratio
  efflux ratio at 3 h, 2 µM: 0.9 ± 0.1
BCRP; islatravir 2 µM, BCRP-transfected monolayers, mean ± SEM, read-out: mean Papp(B to A)/Papp(A to B) efflux ratio
  efflux ratio at 3 h, 2 µM: 4.3 ± 1.1
